The source of these data is PubChem BioAssay AID743396 (Broad Institute, 2014).

Activity calls are given as the source filed them.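 The calls were made as follows: active = fitted curve reaches a 40% rise in fluorescent cells at or below the top valid dose; inactive = opposite-direction effect, or the rest.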

The nature of the first test: autofluorescent compounds in non-GFP fibroblasts, dose response, artefact control for X-chromosome reactivation project, imaging, mTEFS fibroblasts, cherry-pick (AID 743396).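 Also: raw share of Hoechst-counted cells scored GFP positive without control normalization.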 Particulars: mTEFS fibroblasts autofluorescence, GFP-channel imaging, 3 days; at 19.5 µM (top of the series); cells pretreated with 5-aza-dC.
Regarding `COc1cc(/C=C/c2ccc3cccc(O)c3n2)c(Br)cc1O`, the % fluorescent cells increase was 0% (inactive).
For the compound `COC(=O)c1sc(-c2ccc(C(C)(C)C)cc2)cc1NC(=O)c1ccccc1C(=O)O`, the % fluorescent cells increase is 0.032% (inactive).
Still for that read-out and setting: the value for `Cc1ccc(S(=O)(=O)NN2C(=O)/C(=C/c3ccccn3)SC2=S)cc1` was 0.042% (inactive); that for `CCSc1nnc(NC(=O)c2cc(OC)c(OC)c(OC)c2)s1` was 0% (inactive).
Take `Cc1cc(/C=C2\SC(=S)N(Cc3ccco3)C2=O)c(C)n1-c1ccccc1`: the % fluorescent cells increase was 0.981% (inactive).
Take `Cc1ccc(S(=O)(=O)N(C)C[C@H]2Oc3ccc(NC(=O)Nc4ccccc4)cc3CC(=O)N([C@H](C)CO)C[C@@H]2C)cc1`: the % fluorescent cells increase was 0% (inactive).
Take `CC(C)N1CCc2c(sc(NC(=O)c3cc4cc([N+](=O)[O-])ccc4s3)c2C(N)=O)C1`: the % fluorescent cells increase was 0% (inactive).
Still for that read-out and setting: the value for `Cc1ccc(C(=O)NCc2ccccn2)cc1NC1=NC2CS(=O)(=O)CC2S1` (stereo unspecified) was 0.061% (inactive); that for `Cc1cccc(CS(=O)(=O)Cc2ccc(C(=O)NCc3cccs3)o2)c1` was 0.029% (inactive); that for `CCOC(=O)c1ccc(NC(=O)c2ccnn2C)cc1` was 0% (inactive).
Same read-out and setting: the figure for `O=C(OCc1cccc(F)c1)c1ccc2c(=O)n3c(nc2c1)CCC3` is 0.065% (inactive); for `Cc1cccc(-c2ccc([C@H]3[C@H](CO)N4CCCCN(C(=O)NC(C)C)C[C@@H]34)cc2)c1` it is -0.166% (inactive); for `NS(=O)(=O)c1cccc(NC(=O)COC(=O)Cc2ccc(S(=O)(=O)N3CCOCC3)s2)c1` it is 0% (inactive).
As to `CC(O)(c1ccccc1)c1nc(-c2ccncc2)cs1` (stereo unspecified), the % fluorescent cells increase is 0.38% (inactive).
`COc1ccc(-n2ncc(Cl)c(Cl)c2=O)cc1`: the % fluorescent cells increase is 0% (inactive).
On the same count and under the same terms, the value for `COc1cc(/C=N/Nc2nc(N3CCCC3)nc(N3CCCC3)n2)ccc1OCc1ccccc1F` was 0.025% (inactive); that for `O=C(/C=C/Sc1ccc(C(F)(F)F)cn1)c1ccccc1` was -0.007% (inactive).
On the same count and under the same terms, the value for `COc1ccc(OC)c(/C=C/c2ccc3cccc(O)c3n2)c1` was -0.004% (inactive); that for `Clc1ccc(-c2nc(-c3ccncc3)no2)c(Cl)c1` was 0% (inactive); that for `Cc1ccc(S(=O)(=O)c2ccc([N+](=O)[O-])cn2)cc1` was 0% (inactive).
Turning to `C/C=C/c1ccc(C2[C@H]3CNC[C@@H]2N3Cc2cc(-c3ccccc3)on2)cc1` (stereo partly specified), the % fluorescent cells increase is -0.166% (inactive).
Same read-out and setting: the value for `CNc1ccc([N+](=O)[O-])cc1C(=O)O` was -0.007% (inactive); that for `COc1ccc2c3c(n(C)c2c1)[C@@H](CO)N(C)CC31CN(C(=O)NC(C)C)C1` was -0.14% (inactive); that for `Cc1ccc(/C=C/C(=O)N2CCN(S(=O)(=O)/C=C/c3ccccc3)CC2)o1` was 0.017% (inactive).
On the same count and under the same terms, the value for `CCCCC(CCC(=O)Nc1ccn(-c2ccccc2)n1)C(=O)O` (stereo unspecified) was -0.003% (inactive).
Same read-out and setting: the figure for `Cn1c(=O)c(C#N)c(-c2ccc(F)cc2)c2cc(C(=O)c3cc(Cl)cc(Cl)c3O)cnc21` is 0.617% (inactive); for `O=C(NCc1ccccc1)c1ccccc1Br` it is 3.38% (inactive); for `O=C(CCC(=O)Nc1cccnc1)Nc1cccnc1` it is 0.042% (inactive).
With `CC(C)N1C(=O)C(=O)N(CC(=O)N2CCc3ccccc32)C1=O`, the % fluorescent cells increase is 0.029% (inactive).
As to `COc1cccc(CNC(=O)CNC(=S)N(Cc2ccccc2)Cc2ccccc2F)c1`, the % fluorescent cells increase was 0.054% (inactive).
Same read-out and setting: the value for `CO[C@@H]1CN(C)C(=O)c2ccc(NC(=O)Nc3cccc(Cl)c3)cc2OC[C@H](C)N(C(=O)Nc2c(C)noc2C)C[C@H]1C` was 0.367% (inactive); that for `COC(=O)c1c(NC(=O)c2ccccc2)sc2c1CC(C)(C)NC2(C)C` was -0.011% (inactive); that for `COc1ccc2c(c1)c(/C=N/Nc1nc3ccccc3[nH]1)c(C)n2C` was 3.71% (inactive).
Same read-out and setting: the value for `CN(CC(=O)Nc1ccc(Cl)c(Cl)c1)CC(=O)Nc1ccc2c(c1)OCO2` was 0% (inactive); that for `COc1ccc(Cc2c(O)nc(SCC(=O)NC34CC5CC(CC(C5)C3)C4)[nH]c2=O)cc1` was 0.014% (inactive); that for `COc1ccc(CN(C)Cc2nc(Cc3ccccc3Cl)no2)cc1OC` was 0.025% (inactive).
The same measure, in the same setting: the value for `N/C(=N\c1nc(CSc2nc3ccccc3s2)cc(=O)[nH]1)Nc1ccc(F)cc1` was 2.21% (inactive); that for `CNC(=O)C[C@H]1C(=O)N(c2ccccc2)C[C@@H]1C` was 0% (inactive); that for `CC1=Nc2ccccc2/C1=C\c1sc(Nc2ccc(C)cc2)nc1O` was 0.199% (inactive).
In the case of `O=c1c(Cl)c(Cl)cnn1Cc1nnc(-c2ccccc2Br)o1`, the % fluorescent cells increase was -0.006% (inactive).
The same measure, in the same setting: the value for `COC(C(=O)NCc1ccc(C)cc1)c1ccccc1` (stereo unspecified) was 0% (inactive); that for `Cc1ccc(OCCN2CCN(CC(O)Cn3c4ccccc4c4ccccc43)CC2)cc1` (stereo unspecified) was 3.56% (inactive); that for `O=S(=O)(Nc1cc(Sc2cccc3cccnc23)c(O)c2ccccc12)c1ccccc1` was -0.003% (inactive).
On the same count and under the same terms, the value for `Cc1ccc(C)c(OCCC(=O)Nc2cc(S(=O)(=O)N3CCCCC3)ccc2C)c1` was 13% (inactive).
Still for that read-out and setting: the figure for `COc1ccc(C2=NOC3(CC(=O)N(c4ccc(F)cc4)C3=O)C2)cc1` (stereo unspecified) is 0.016% (inactive); for `O=CNc1ccc2c(c1)Cc1cc([N+](=O)[O-])ccc1-2` it is 0.119% (inactive).
For the compound `CC(=NNc1ccc2ccccc2n1)c1ccccn1`, the % fluorescent cells increase is 15.8% (inactive).
Same read-out and setting: the figure for `CC(=NNC(=S)Nc1cccc(Cl)c1)c1ccccn1` is 0% (inactive).
As for `Cc1cc(C(=O)NCc2cc(F)cc3c2OCOC3)nn1C`, the % fluorescent cells increase is -0.003% (inactive).
In the case of `C[C@@H]1COc2cccc(NCCO)c2S(=O)(=O)N1`, the % fluorescent cells increase is 0% (inactive).
The same measure, in the same setting: the figure for `O=C(O)c1ccccc1NS(=O)(=O)c1ccc(N/N=C/c2cccc(O)c2O)c([N+](=O)[O-])c1` is 12.8% (inactive); for `C/C=C/Cn1c(SCCCc2ccccc2)nc2c1c(=O)[nH]c(=O)n2C` it is -0.004% (inactive).
On the same count and under the same terms, the figure for `C=Cc1cnc([N+](=O)[O-])n1C` is 0.007% (inactive); for `Brc1cccc(CNCC2CCCO2)c1` (stereo unspecified) it is 0.009% (inactive).
On the same count and under the same terms, the value for `Cc1[nH]c2ccc(Br)cc2c(=O)c1CN1CCCCCC1` was 0% (inactive).

The test is the same for the next values; noted with them: mTEFS fibroblasts autofluorescence, GFP-channel imaging, 3 days; at 21 µM (top of the series); cells pretreated with 5-aza-dC.
Turning to `Cc1noc(C)c1NC(=O)N(C)C[C@@H]1Oc2ccc(NC(=O)C3CC3)cc2CC(=O)N([C@@H](C)CO)C[C@@H]1C`, the % fluorescent cells increase is 0.068% (inactive).
